Source: PubChem BioAssay (NCI)
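Five compound concentrations were applied to cells in 96-well plates for 48 hours; endpoints were derived by simple linear interpolation of the resulting dose-response curve. Abbreviation: GI50, concentration required for 50% inhibition of growth. Definition used: TGI = concentration required for complete inhibition of growth.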

Assays:
Assay in all cases: inhibition of tumour cell growth, NCI panel, 48 h
A549 NSCLC = test system: A549 NSCLC
MOLT-4 leukemia = test system: MOLT-4 leukemia
HCC-2998 colon = test system: HCC-2998 colon
PC-3 prostate = test system: PC-3 prostate
ACHN renal = test system: ACHN renal
SK-MEL-2 melanoma = test system: SK-MEL-2 melanoma
OVCAR-4 ovarian = test system: OVCAR-4 ovarian
NCI-H460 lung = test system: NCI-H460 lung
SK-MEL-5 melanoma = test system: SK-MEL-5 melanoma
HOP-62 NSCLC = test system: HOP-62 NSCLC
NCI-H23 lung = test system: NCI-H23 lung
MALME-3M melanoma = test system: MALME-3M melanoma
HOP-92 NSCLC = test system: HOP-92 NSCLC
MDA-MB-231 breast = test system: MDA-MB-231 breast
CCRF-CEM leukemia = test system: CCRF-CEM leukemia
HL-60(TB) leukemia = test system: HL-60(TB) leukemia
MDA-MB-435 = test system: MDA-MB-435
SR leukemia = test system: SR leukemia
HCT-15 colon = test system: HCT-15 colon
TK-10 renal = test system: TK-10 renal
OVCAR-8 ovarian = test system: OVCAR-8 ovarian
OVCAR-3 ovarian = test system: OVCAR-3 ovarian
HT29 colon = test system: HT29 colon
T-47D breast = test system: T-47D breast
HS 578T breast = test system: HS 578T breast
LOX IMVI melanoma = test system: LOX IMVI melanoma
SW-620 colon = test system: SW-620 colon
NCI-H522 lung = test system: NCI-H522 lung
SF-295 CNS = test system: SF-295 CNS

In the case of `C=CC[Se]C(=O)c1cncc(C(=O)[Se]CC=C)c1`, the GI50 (A549 NSCLC) is reported as 434 nM, the TGI (A549 NSCLC) is reported as > 100000 nM and the GI50 (MOLT-4 leukemia) is reported as 2730 nM. The TGI (MOLT-4 leukemia) was 7740 nM, the GI50 (HCC-2998 colon) was 1060 nM and the TGI (HCC-2998 colon) was 2260 nM. The GI50 (PC-3 prostate) was 431 nM, the TGI (PC-3 prostate) was 1530 nM and the GI50 (ACHN renal) was 3280 nM. It also gave a TGI (ACHN renal) of 10300 nM, a GI50 (SK-MEL-2 melanoma) of 1920 nM and a TGI (SK-MEL-2 melanoma) of 3790 nM. For the same compound, the GI50 (OVCAR-4 ovarian) was 1990 nM, the TGI (OVCAR-4 ovarian) was 3850 nM and the GI50 (NCI-H460 lung) was 382 nM. The TGI (NCI-H460 lung) was 3070 nM, the GI50 (SK-MEL-5 melanoma) was 1710 nM and the TGI (SK-MEL-5 melanoma) was 3690 nM. The GI50 (HOP-62 NSCLC) was 525 nM, the TGI (HOP-62 NSCLC) was 2230 nM and the GI50 (NCI-H23 lung) was 1390 nM. It also gave a TGI (NCI-H23 lung) of 2960 nM, a GI50 (MALME-3M melanoma) of 1920 nM and a TGI (MALME-3M melanoma) of 4860 nM. The GI50 (HOP-92 NSCLC) was 3300 nM, the TGI (HOP-92 NSCLC) was 8930 nM and the GI50 (MDA-MB-231 breast) was 1800 nM. It also gave a TGI (MDA-MB-231 breast) of 4000 nM, a GI50 (CCRF-CEM leukemia) of 2420 nM and a TGI (CCRF-CEM leukemia) of 7280 nM. For the same compound, the GI50 (HL-60(TB) leukemia) was 2640 nM, the TGI (HL-60(TB) leukemia) was 7670 nM and the GI50 (MDA-MB-435) was 1880 nM. It also gave a TGI (MDA-MB-435) of 3790 nM, a GI50 (SR leukemia) of 3020 nM and a TGI (SR leukemia) of 27100 nM. It also gave a GI50 (HCT-15 colon) of 1950 nM, a TGI (HCT-15 colon) of 3810 nM and a GI50 (TK-10 renal) of 1710 nM. The TGI (TK-10 renal) was 3140 nM, the GI50 (OVCAR-8 ovarian) was 1510 nM and the TGI (OVCAR-8 ovarian) was 2940 nM. The GI50 (OVCAR-3 ovarian) was 1890 nM, the TGI (OVCAR-3 ovarian) was 3400 nM and the GI50 (HT29 colon) was 3030 nM. It also gave a TGI (HT29 colon) of 10900 nM, a GI50 (T-47D breast) of 2140 nM and a TGI (T-47D breast) of 5140 nM. For the same compound, the GI50 (HS 578T breast) was 1940 nM, the TGI (HS 578T breast) was 6820 nM and the GI50 (LOX IMVI melanoma) was 1740 nM. The TGI (LOX IMVI melanoma) was 3350 nM, the GI50 (SW-620 colon) was 1940 nM and the TGI (SW-620 colon) was 3680 nM. The GI50 (NCI-H522 lung) was 1680 nM, the TGI (NCI-H522 lung) was 3100 nM and the GI50 (SF-295 CNS) was 261 nM. It also gave a TGI (SF-295 CNS) of 756 nM.
